From patent US10662189B2, “PDE4 inhibitor” (SHIJIAZHUANG SAGACITY NEW DRUG DEVELOPMENT CO., LTD., priority 2016, dated 2020) come the findings set out here.

SMILES strings stand for the structures.

Recombinant human PDE4B, sequence (Q07343 305-736 limits assumed): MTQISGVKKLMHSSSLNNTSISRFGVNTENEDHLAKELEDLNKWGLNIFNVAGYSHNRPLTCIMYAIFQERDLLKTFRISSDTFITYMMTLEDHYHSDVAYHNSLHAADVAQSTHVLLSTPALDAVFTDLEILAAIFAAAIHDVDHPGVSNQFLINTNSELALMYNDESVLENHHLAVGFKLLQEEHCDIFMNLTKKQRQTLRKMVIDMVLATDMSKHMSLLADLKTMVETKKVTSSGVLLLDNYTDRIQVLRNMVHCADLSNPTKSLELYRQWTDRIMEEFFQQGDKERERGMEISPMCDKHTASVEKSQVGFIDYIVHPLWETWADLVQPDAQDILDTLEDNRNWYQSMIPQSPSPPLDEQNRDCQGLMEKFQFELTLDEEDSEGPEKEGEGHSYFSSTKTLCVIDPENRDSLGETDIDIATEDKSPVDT

The target in this test is Recombinant human PDE4B (Homo sapiens (Human), UniProt Q07343). The test is described as follows: Inhibitory activity against PDE 4B in vitro (fluorescence polarization, Transcreener AMP2/GMP2). The class given is biochemical. The note with it: 1 μM cAMP. Here is the method:
Inhibitory activity of the compounds against PDE 4B
The enzyme activity was indicated by measuring the AMP/GMP expression and tracing AMP/GMP antibody binding based on fluorescence polarization in the biological assay.
10 mM Tris-HCl (pH 7.5), 5 mM MgCl2, 0.01% Brij 35, 1 mM DTT and 1% DMSO.
Recombinant human PDE4B (Gen accession number: NM_002600; amino acid 305 end) was expressed by baculovirus in Sf9 insect cells using an N-terminal GST tag. MW=78 kDa.
Transcreener® AMP2/GMP2 antibody and AMP2/GMP2 AlexaFluor633 tracer
i) Recombinant human PDE4B and the enzyme substrate (1 μM cAMP) were dissolved in the newly-prepared buffer solution, respectively.
ii) The PDE4B buffer solution defined as above was transferred into the reaction wells.
iii) The compound which was dissolved in 100% DMSO was added to the reaction wells of the PDE4B buffer solution by ultrasonic oscillator (echo 550; nanoliter range) and incubated at room temperature for 10 minutes.
iv) The enzymatic buffer solution was then added to the reaction wells defined as above to initiate the reaction.
v) The reaction was incubated at room temperature for 1 hour.
vi) The reaction was terminated by adding detecting mixture (Transcreener® AMP2/GMP2 antibody and AMP2/GMP2 AlexaFluor633 tracer) and incubated for 90 minutes with slowly mixing. The measurement range of fluorescence polarization is Ex/Em=620/688.
The fluorescence polarization signal was converted into nM according to the AMP/GMP standard curve and the percent enzyme activity relative to DMSO calculated by Excel. GraphPad Prism was used to plot the curves (Drawing Medicine Icon).
For `COc1ccc(C(CS(C)(=O)=O)n2c(=O)[nH]c3c(-c4ccccc4F)ccnc32)cc1OC` (single isomer, unassigned) [WX072], the half-maximal inhibitory concentration (IC50) turned out to be 24.6 nM.
For `CCOc1cc([C@@H](CS(C)(=O)=O)n2c(=O)[nH]c3cc(Cl)cnc32)ccc1OC` [WX001] the value was 9.48 nM; for `CCOc1cc([C@@H](CS(C)(=O)=O)n2c(=O)[nH]c3cc(C(F)(F)F)cnc32)ccc1OC` [WX002], 5.66 nM.
Take `CCOc1cc([C@@H](CS(C)(=O)=O)n2c(=O)[nH]c3cc(F)cnc32)ccc1OC` [WX003]: the half-maximal inhibitory concentration (IC50) worked out at 10.6 nM.
As to `CCOc1cc([C@@H](CS(C)(=O)=O)n2c(=O)[nH]c3cc(Br)cnc32)ccc1OC` [WX004], the IC50 is 7.09 nM.
On to `CCOc1cc([C@@H](CS(C)(=O)=O)n2c(=O)[nH]c3cc(C4CC4)cnc32)ccc1OC` [WX005], for which the concentration for half-maximal inhibition (IC50) was found to be 5.03 nM.
For `CCOc1cc([C@@H](CS(C)(=O)=O)n2c(=O)[nH]c3cc(Cc4ccccc4F)cnc32)ccc1OC` [WX006], the half-inhibitory concentration (IC50) came out at 1.8 nM.
For `CCOc1cc([C@@H](CS(C)(=O)=O)n2c(=O)[nH]c3cc(C=C(C)C)cnc32)ccc1OC` [WX007] the value was 2.81 nM; for `CCOc1cc([C@@H](CS(C)(=O)=O)n2c(=O)[nH]c3cc(CC(C)C)cnc32)ccc1OC` [WX008], 4.89 nM.
For `CCOc1cc([C@@H](CS(C)(=O)=O)n2c(=O)[nH]c3cc(-c4ccccc4F)cnc32)ccc1OC` [WX009] the value was 0.86 nM; for `CCOc1cc([C@@H](CS(C)(=O)=O)n2c(=O)[nH]c3cc(-c4ccccc4)cnc32)ccc1OC` [WX010], 2.6 nM; for `CCOc1cc([C@@H](CS(C)(=O)=O)n2c(=O)[nH]c3cc(-c4cccc(F)c4)cnc32)ccc1OC` [WX011], 3.4 nM.
For `CCOc1cc([C@@H](CS(C)(=O)=O)n2c(=O)[nH]c3cc(-c4ccc(F)cc4)cnc32)ccc1OC` [WX012] the value was 3.9 nM.
Turning to `CCOc1cc([C@@H](CS(C)(=O)=O)n2c(=O)[nH]c3cc(-c4cccc(F)c4F)cnc32)ccc1OC` [WX013], the IC50 was 0.994 nM.
Turning to `CCOc1cc([C@@H](CS(C)(=O)=O)n2c(=O)[nH]c3cc(-c4ccccc4C)cnc32)ccc1OC` [WX014], the 50% inhibitory concentration (IC50) was less than 0.5 nM.
For `CCOc1cc([C@@H](CS(C)(=O)=O)n2c(=O)[nH]c3cc(-c4ccccc4C(C)C)cnc32)ccc1OC` [WX015] the value was 1.04 nM; for `CCOc1cc([C@@H](CS(C)(=O)=O)n2c(=O)[nH]c3cc(-c4ccccc4Cl)cnc32)ccc1OC` [WX016], less than 0.5 nM; for `CCOc1cc([C@@H](CS(C)(=O)=O)n2c(=O)[nH]c3cc(-c4ccccc4OC)cnc32)ccc1OC` [WX017], 0.641 nM.
For `CCOc1cc([C@@H](CS(C)(=O)=O)n2c(=O)[nH]c3cc(-c4ccccc4C(F)(F)F)cnc32)ccc1OC` [WX018] the value was 0.391 nM; for `CCOc1cc([C@@H](CS(C)(=O)=O)n2c(=O)[nH]c3cc(-c4cn[nH]c4)cnc32)ccc1OC` [WX019], 3.38 nM; for `CCOc1cc([C@@H](CS(C)(=O)=O)n2c(=O)[nH]c3cc(C)cnc32)ccc1OC` [WX020], 65.8 nM.
With `CCOc1cc([C@@H](CS(C)(=O)=O)n2c(=O)[nH]c3cc(-n4ccccc4=O)cnc32)ccc1OC` [WX021], the half-inhibitory concentration (IC50) worked out at 26.1 nM.
`CCOc1cc([C@@H](CS(C)(=O)=O)n2c(=O)[nH]c3cc(C#N)cnc32)ccc1OC` [WX022]: the 50% inhibitory concentration (IC50) was 26.5 nM.
For `CCOc1cc([C@@H](CS(C)(=O)=O)n2c(=O)[nH]c3cc(CO)cnc32)ccc1OC` [WX023] the value was 68.1 nM.
On to `CCOc1cc([C@@H](CS(C)(=O)=O)n2c(=O)n(Cc3ccccc3F)c3cc(Cc4ccccc4F)cnc32)ccc1OC` [WX024], for which the IC50 turned out to be 2.7 nM.
For `CCOc1cc([C@@H](CS(C)(=O)=O)n2c(=O)[nH]c3cc(-c4cccnc4)cnc32)ccc1OC` [WX025] the value was 9.53 nM.
For `CCOc1cc([C@@H](CS(C)(=O)=O)n2c(=O)[nH]c3cc(-c4ncccn4)cnc32)ccc1OC` [WX026] the value was 4.51 nM; for `CCOc1cc([C@@H](CS(C)(=O)=O)n2c(=O)[nH]c3cc(-c4cncnc4)cnc32)ccc1OC` [WX027], 19.1 nM; for `CCOc1cc([C@@H](CS(C)(=O)=O)n2c(=O)[nH]c3cc(-c4nccc(C)n4)cnc32)ccc1OC` [WX028], 9.7 nM.
Consider `CCOc1cc([C@@H](CS(C)(=O)=O)n2c(=O)[nH]c3cc(-c4cncnc4C)cnc32)ccc1OC` [WX029], for which the concentration for half-maximal inhibition (IC50) is 14.8 nM.
For `CCOc1cc([C@@H](CS(C)(=O)=O)n2c(=O)[nH]c3cc(-c4ccccc4CC)cnc32)ccc1OC` [WX030] the value was 0.515 nM; for `CCOc1cc([C@@H](CS(C)(=O)=O)n2c(=O)[nH]c3cc(-c4ccccc4OCC)cnc32)ccc1OC` [WX031], 0.861 nM.
For the compound `CCOc1cc([C@@H](CS(C)(=O)=O)n2c(=O)[nH]c3cc(-c4ccccc4C#N)cnc32)ccc1OC` [WX032], the IC50 worked out at 0.234 nM.
Turning to `CCOc1cc([C@@H](CS(C)(=O)=O)n2c(=O)[nH]c3cc(-c4c(F)cccc4F)cnc32)ccc1OC` [WX033], the IC50 worked out at 0.671 nM.
With `CCOc1cc([C@@H](CS(C)(=O)=O)n2c(=O)[nH]c3cc(-c4c(C)ncnc4C)cnc32)ccc1OC` [WX034], the half-maximal inhibitory concentration (IC50) stood at 5.18 nM.
For `CCOc1cc([C@@H](CS(C)(=O)=O)n2c(=O)[nH]c3cc(-c4ccncc4)cnc32)ccc1OC` [WX035] the value was 15.5 nM; for `CCOc1cc([C@@H](CS(C)(=O)=O)n2c(=O)[nH]c3cc(-c4cscn4)cnc32)ccc1OC` [WX036], 6.27 nM; for `CCOc1cc([C@@H](CS(C)(=O)=O)n2c(=O)[nH]c3cc(-c4ncccc4F)cnc32)ccc1OC` [WX037], 10.2 nM.
Turning to `CCOc1cc([C@@H](CS(C)(=O)=O)n2c(=O)[nH]c3cc(-c4nccnc4C)cnc32)ccc1OC` [WX038], the IC50 was 14.5 nM.
For `CCOc1cc([C@@H](CS(C)(=O)=O)n2c(=O)[nH]c3cc(-c4nnccc4C)cnc32)ccc1OC` [WX039] the value was 21.7 nM; for `CCOc1cc([C@@H](CS(C)(=O)=O)n2c(=O)[nH]c3cc(C4=CCN(C(=O)OC(C)(C)C)CC4)cnc32)ccc1OC` [WX040], 10.4 nM.
As to `CCOc1cc([C@@H](CS(C)(=O)=O)n2c(=O)n(C)c3cc(OC)cnc32)ccc1OC` [WX041], the IC50 turned out to be 16.4 nM.
Turning to `CCOc1cc([C@@H](CS(C)(=O)=O)n2c(=O)[nH]c3cc(Oc4ncccn4)cnc32)ccc1OC` [WX042], the IC50 was 5.42 nM.
Turning to `CCOc1cc([C@@H](CS(C)(=O)=O)n2c(=O)[nH]c3cc(Oc4ccccc4C(F)(F)F)cnc32)ccc1OC` [WX043], the half-maximal inhibitory concentration (IC50) turned out to be 2.53 nM.
Consider `CCOc1cc([C@@H](CS(C)(=O)=O)n2c(=O)n(-c3ccccc3)c3cc(Br)cnc32)ccc1OC` [WX044], for which the 50% inhibitory concentration (IC50) amounted to 26.6 nM.
`CCOc1cc([C@@H](CS(C)(=O)=O)n2c(=O)n(C3CC3)c3cc(Br)cnc32)ccc1OC` [WX045]: the half-maximal inhibitory concentration (IC50) was found to be 6.5 nM.
For the compound `CCOc1cc([C@@H](CS(C)(=O)=O)n2c(=O)n(C3CC3)c3cc(-c4ccccc4F)cnc32)ccc1OC` [WX046], the IC50 was 7.79 nM.
For `CCOc1cc([C@@H](CS(C)(=O)=O)n2c(=O)n(CC(F)F)c3cc(Cl)cnc32)ccc1OC` [WX047] the value was 41.6 nM; for `CCOc1cc([C@@H](CS(C)(=O)=O)n2c(=O)n(CC(F)(F)F)c3cc(Cl)cnc32)ccc1OC` [WX048], 19.8 nM.
For `CCOc1cc([C@@H](CS(C)(=O)=O)n2c(=O)n(CC(F)F)c3cc(F)cnc32)ccc1OC` [WX049] the value was 90.7 nM; for `CCOc1cc([C@@H](CS(C)(=O)=O)n2c(=O)n(C)c3cc(Br)cnc32)ccc1OC` [WX050], 11 nM.
For `CCOc1cc([C@@H](CS(C)(=O)=O)n2c(=O)n(CCOC)c3cc(Br)cnc32)ccc1OC` [WX051] the value was 9.1 nM; for `CCOc1cc([C@@H](CS(C)(=O)=O)n2c(=O)n(CCS(C)(=O)=O)c3cc(Br)cnc32)ccc1OC` [WX052], 8.2 nM.
For `CCOc1cc([C@@H](CS(C)(=O)=O)n2c(=O)n(Cc3ccccc3F)c3cc(Br)cnc32)ccc1OC` [WX053], the concentration for half-maximal inhibition (IC50) was 1.49 nM.
For `CCOc1cc([C@@H](CS(C)(=O)=O)n2c(=O)n(Cc3nccc(C)n3)c3cc(Br)cnc32)ccc1OC` [WX054] the value was 6.9 nM.
As for `CCOc1cc([C@@H](CS(C)(=O)=O)n2c(=O)n(Cc3cncc(C)n3)c3cc(Br)cnc32)ccc1OC` [WX055], the IC50 is 6.99 nM.
For `CCOC(=O)Cn1c(=O)n([C@H](CS(C)(=O)=O)c2ccc(OC)c(OCC)c2)c2ncc(Br)cc21` [WX056] the value was 3.4 nM; for `CCOc1cc([C@@H](CS(C)(=O)=O)n2c(=O)n(CC)c3cc(-c4ccccc4F)cnc32)ccc1OC` [WX058], 1.99 nM.
Take `CCOc1cc([C@@H](CS(C)(=O)=O)n2c(=O)n(CCO)c3cc(-c4ccccc4F)cnc32)ccc1OC` [WX059]: the IC50 came to 2.02 nM.
For `CCOc1cc([C@@H](CS(C)(=O)=O)n2c(=O)n(C(C)C)c3cc(-c4ccccc4F)cnc32)ccc1OC` [WX060] the value was 3.48 nM; for `CCOc1cc([C@@H](CS(C)(=O)=O)n2c(=O)n(CC#N)c3cc(-c4ccccc4F)cnc32)ccc1OC` [WX061], 0.989 nM.
